Laboratory results reported in patent US10450301B2, “Apoptosis signal-regulating kinase 1 inhibitors and methods of use thereof” (ENANTA PHARMACEUTICALS, INC., priority 2017, dated 2019).
pIC50: −log10 of the molar value.

Target: ASK1 (Homo sapiens (Human), UniProt Q99683)
Assay: HTRF KinEASE Assay (TR-FRET, STK3 peptide substrate), inhibition of ASK1
Assay type: biochemical
Details: 5 nM ASK1 kinase, 1 μM STK3 peptide substrate, 100 μM ATP, 3 hours; compound 0 to 10 μM
How it was run: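 TR-FRET HTRF KinEASE-STK format with an STK3 biotinylated peptide substrate. Signal tracks phosphorylation; IC50 from curve fitting.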

ASK1, sequence (Q99683 whole entry): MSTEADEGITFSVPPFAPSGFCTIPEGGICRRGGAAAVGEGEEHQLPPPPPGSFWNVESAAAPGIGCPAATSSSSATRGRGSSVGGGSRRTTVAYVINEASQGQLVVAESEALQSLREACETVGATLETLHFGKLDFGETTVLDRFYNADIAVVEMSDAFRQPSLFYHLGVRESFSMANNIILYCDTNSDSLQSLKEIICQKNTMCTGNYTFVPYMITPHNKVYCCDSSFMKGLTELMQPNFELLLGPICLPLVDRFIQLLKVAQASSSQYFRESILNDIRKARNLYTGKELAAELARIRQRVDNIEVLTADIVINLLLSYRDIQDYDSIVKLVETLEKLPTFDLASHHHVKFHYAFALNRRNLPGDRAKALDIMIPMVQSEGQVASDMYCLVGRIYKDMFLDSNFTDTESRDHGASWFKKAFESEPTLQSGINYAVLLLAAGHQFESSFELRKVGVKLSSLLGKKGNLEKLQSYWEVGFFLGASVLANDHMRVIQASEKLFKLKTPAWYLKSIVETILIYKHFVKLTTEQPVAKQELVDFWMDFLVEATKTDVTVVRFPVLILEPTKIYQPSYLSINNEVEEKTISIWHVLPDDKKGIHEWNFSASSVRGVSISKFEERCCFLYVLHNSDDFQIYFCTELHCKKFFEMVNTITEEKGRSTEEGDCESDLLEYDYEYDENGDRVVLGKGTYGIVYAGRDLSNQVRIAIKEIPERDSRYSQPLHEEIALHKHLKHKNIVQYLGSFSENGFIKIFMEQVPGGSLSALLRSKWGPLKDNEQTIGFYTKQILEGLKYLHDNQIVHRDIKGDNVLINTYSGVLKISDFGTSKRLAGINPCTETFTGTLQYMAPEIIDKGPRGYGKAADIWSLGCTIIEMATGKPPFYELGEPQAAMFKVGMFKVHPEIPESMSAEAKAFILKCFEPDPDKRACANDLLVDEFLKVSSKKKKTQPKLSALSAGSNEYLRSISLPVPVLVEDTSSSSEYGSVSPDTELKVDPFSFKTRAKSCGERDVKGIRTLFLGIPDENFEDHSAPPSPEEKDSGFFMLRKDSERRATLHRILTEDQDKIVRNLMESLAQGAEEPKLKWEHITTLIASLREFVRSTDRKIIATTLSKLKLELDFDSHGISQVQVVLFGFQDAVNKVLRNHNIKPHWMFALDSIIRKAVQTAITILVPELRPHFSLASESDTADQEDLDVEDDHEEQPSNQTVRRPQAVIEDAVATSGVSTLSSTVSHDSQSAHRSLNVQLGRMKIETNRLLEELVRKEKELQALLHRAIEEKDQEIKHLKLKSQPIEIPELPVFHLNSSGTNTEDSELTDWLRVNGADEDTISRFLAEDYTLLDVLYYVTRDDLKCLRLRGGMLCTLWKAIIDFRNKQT

Row | pIC50 | Structure (SMILES)
1 | 8.00 to 9.00 | COCCS(=O)(=O)N1CCc2cnc(C(=O)Nc3cccc(-c4nnnn4C(C)C)n3)cc2C1 [Example 138]
2 | 8.00 to 9.00 | CC(C)n1nnnc1-c1cccc(NC(=O)c2cc3c(cn2)CCN(S(=O)(=O)CC2CC(F)(F)C2)C3)n1 [Example 139]
3 | 7.00 to 8.00 | CC(C)n1nnnc1-c1cccc(NC(=O)c2cc3c(cn2)CCN(S(=O)(=O)CC(F)(F)F)C3)n1 [Example 140]
4 | 8.00 to 9.00 | CC(C)CS(=O)(=O)N1CCc2cnc(C(=O)Nc3cccc(-c4nnnn4C(C)C)n3)cc2C1 [Example 141]
5 | 8.00 to 9.00 | C[C@H](CO)n1nnnc1-c1cccc(NC(=O)c2cc3c(cn2)CCN(C=O)C3)n1 [Example 142, (R)-6-formyl-N-(6-(1-(1-hydroxypropan-2-yl)-1H-tetrazol-5-yl)pyridin-2-yl)-5,6,7,8-tetrahydro-2,6-naphthyridine-3-carboxamide]
6 | 8.00 to 9.00 | C[C@H](CO)n1nnnc1-c1cccc(NC(=O)c2cc3c(cn2)CCN(C(=O)OC(C)(C)C)C3)n1 [Example 143, tert-butyl (R)-7-((6-(1-(1-hydroxypropan-2-yl)-1H-tetrazol-5-yl)pyridin-2-yl)carbamoyl)-3,4-dihydro-2,6-naphthyridine-2(1H)-carboxylate]
7 | 8.00 to 9.00 | C[C@H](CO)n1nnnc1-c1cccc(NC(=O)c2cc3c(cn2)CCN(C(=O)N2CCCC2)C3)n1 [Example 144, (R)—N-(6-(1-(1-hydroxypropan-2-yl)-1H-tetrazol-5-yl)pyridin-2-yl)-6-(pyrrolidine-1-carbonyl)-5,6,7,8-tetrahydro-2,6-naphthyridine-3-carboxamide]
8 | 8.00 to 9.00 | CCOC(=O)N1CCc2cnc(C(=O)Nc3cccc(-c4nnnn4[C@H](C)CO)n3)cc2C1 [Example 145]
9 | 8.00 to 9.00 | C[C@H](CO)n1nnnc1-c1cccc(NC(=O)c2cc3c(cn2)CCN(C(=O)C2CCCC2)C3)n1 [Example 146, (R)-6-(cyclopentanecarbonyl)-N-(6-(1-(1-hydroxypropan-2-yl)-1H-tetrazol-5-yl)pyridin-2-yl)-5,6,7,8-tetrahydro-2,6-naphthyridine-3-carboxamide]
10 | 8.00 to 9.00 | C[C@H](CO)n1nnnc1-c1cccc(NC(=O)c2cc3c(cn2)CCN(S(=O)(=O)C2CC2)C3)n1 [Example 148]
11 | 8.00 to 9.00 | CC(C)S(=O)(=O)N1CCc2cnc(C(=O)Nc3cccc(-c4nnnn4[C@H](C)CO)n3)cc2C1 [Example 149]
12 | 8.00 to 9.00 | C[C@H](CO)n1nnnc1-c1cccc(NC(=O)c2cc3c(cn2)CCN(S(=O)(=O)CCC(F)(F)F)C3)n1 [Example 150]
13 | 8.00 to 9.00 | CC(C)CC(=O)N1CCc2cnc(C(=O)Nc3cccc(-c4nnnn4[C@H](C)CO)n3)cc2C1 [Example 151]
14 | 8.00 to 9.00 | C[C@H](CO)n1nnnc1-c1cccc(NC(=O)c2cc3c(cn2)CCN(C(=O)C(C)(C)C)C3)n1 [Example 152]
15 | 7.00 to 8.00 | CC(C)n1nnnc1-c1cccc(NC(=O)c2cc3c(cn2)CCN(C(=O)OC(C)(C)C)C3)n1 [Example 153, tert-butyl 7-((6-(1-isopropyl-1H-tetrazol-5-yl)pyridin-2-yl)carbamoyl)-3,4-dihydro-2,6-naphthyridine-2(1H)-carboxylate]
16 | 8.00 to 9.00 | C[C@H](CO)n1nnnc1-c1cccc(NC(=O)c2cc3c(cn2)CCN(S(=O)(=O)N2CCCC2)C3)n1 [Example 154]
17 | 8.00 to 9.00 | C[C@H](CO)n1nnnc1-c1cccc(NC(=O)c2cc3c(cn2)CCN(C(=O)C2CC2)C3)n1 [Example 155]
18 | 8.00 to 9.00 | C[C@H](CO)n1nnnc1-c1cccc(NC(=O)c2cc3c(cn2)CCN(C(=O)OC2CCCC2)C3)n1 [Example 156]
19 | 8.00 to 9.00 | C[C@H](CO)n1nnnc1-c1cccc(NC(=O)c2cc3c(cn2)CCN(C(=O)OC2CCC2)C3)n1 [Example 157]
20 | 8.00 to 9.00 | COCCOC(=O)N1CCc2cnc(C(=O)Nc3cccc(-c4nnnn4[C@H](C)CO)n3)cc2C1 [Example 158]
21 | 8.00 to 9.00 | C[C@H](CO)n1nnnc1-c1cccc(NC(=O)c2cc3c(cn2)CCN(C(=O)OCC(C)(C)C)C3)n1 [Example 159]
22 | 8.00 to 9.00 | CCCOC(=O)N1CCc2cnc(C(=O)Nc3cccc(-c4nnnn4[C@H](C)CO)n3)cc2C1 [Example 160]
23 | 8.00 to 9.00 | CC(C)CS(=O)(=O)N1CCc2cnc(C(=O)Nc3cccc(-c4nnnn4[C@H](C)CO)n3)cc2C1 [Example 161]
24 | 8.00 to 9.00 | CC(C)OC(=O)N1CCc2cnc(C(=O)Nc3cccc(-c4nnnn4[C@H](C)CO)n3)cc2C1 [Example 162, isopropyl (R)-7-((6-(1-(1-hydroxypropan-2-yl)-1H-tetrazol-5-yl)pyridin-2-yl)carbamoyl)-3,4-dihydro-2,6-naphthyridine-2(1H)-carboxylate]
25 | 8.00 to 9.00 | C[C@H](CO)n1nnnc1-c1cccc(NC(=O)c2cc3c(cn2)CCN(CC2CC2)C3)n1 [Example 163, (R)-6-(cyclopropylmethyl)-N-(6-(1-(1-hydroxypropan-2-yl)-1H-tetrazol-5-yl)pyridin-2-yl)-5,6,7,8-tetrahydro-2,6-naphthyridine-3-carboxamide]

Row | pIC50 | Structure (SMILES)
26 | 8.00 to 9.00 | CC(C)CN1CCc2cnc(C(=O)Nc3cccc(-c4nnnn4[C@H](C)CO)n3)cc2C1 [Example 164]
27 | 8.00 to 9.00 | CCCN1CCc2cnc(C(=O)Nc3cccc(-c4nnnn4[C@H](C)CO)n3)cc2C1 [Example 165]
28 | 8.00 to 9.00 | C[C@H](CO)n1nnnc1-c1cccc(NC(=O)c2cc3c(cn2)CCN(S(=O)(=O)N(C)C)C3)n1 [Example 166]
29 | 8.00 to 9.00 | CCN(C)C(=O)N1CCc2cnc(C(=O)Nc3cccc(-c4nnnn4[C@H](C)CO)n3)cc2C1 [Example 167]
30 | 8.00 to 9.00 | C[C@H](CO)n1nnnc1-c1cccc(NC(=O)c2cc3c(cn2)CCN(C(=O)N(C)C)C3)n1 [Example 168]
31 | 8.00 to 9.00 | C[C@H](CO)n1nnnc1-c1cccc(NC(=O)c2cc3c(cn2)CCN(C(=O)NC2CCCC2)C3)n1 [Example 169]
32 | 8.00 to 9.00 | CCNC(=O)N1CCc2cnc(C(=O)Nc3cccc(-c4nnnn4[C@H](C)CO)n3)cc2C1 [Example 170]
33 | 8.00 to 9.00 | C[C@H](CO)n1nnnc1-c1cccc(NC(=O)c2cc3c(cn2)CCN(Cc2ccccn2)C3)n1 [Example 171]
34 | 8.00 to 9.00 | CC(C)n1nnnc1-c1cccc(NC(=O)c2cc3c(cn2)CCN(S(=O)(=O)CCC(F)(F)F)C3)n1 [Example 172]
35 | 8.00 to 9.00 | CC(C)n1nnnc1-c1cccc(NC(=O)c2cc3c(cn2)CCN(C(=O)N2CCCC2)C3)n1 [Example 173]
36 | 6.00 to 7.00 | COc1cc2c(cc1C(=O)Nc1cccc(-c3nnnn3C(C)C)n1)C(=O)N(C(C)C)C2 [Example 174]
37 | 7.00 to 8.00 | COc1cc2c(cc1C(=O)Nc1cccc(-c3nncn3C(C)C)n1)C(=O)N(C(C)C)C2 [Example 175, 2-isopropyl-N-(6-(4-isopropyl-4H-1,2,4-triazol-3-yl)pyridin-2-yl)-6-methoxy-3-oxoisoindoline-5-carboxamide]
38 | < 6.00 | CC(C)N1Cc2cc(F)c(C(=O)Nc3cccc(-c4nnnn4C(C)C)n3)cc2C1=O [Example 176]
39 | < 6.00 | CC(C)N1Cc2cc(F)c(C(=O)Nc3cccc(-c4nncn4C(C)C)n3)cc2C1=O [Example 177, 6-fluoro-2-isopropyl-N-(6-(4-isopropyl-4H-1,2,4-triazol-3-yl)pyridin-2-yl)-3-oxoisoindoline-5-carboxamide]
40 | 8.00 to 9.00 | C[C@H](CO)n1nnnc1-c1cccc(NC(=O)c2cc3c(cn2)CN(C(=O)OCc2ccccc2)C3)n1 [Example 178]
41 | 7.00 to 8.00 | CC(C)n1cnnc1-c1cccc(NC(=O)c2cc3c(cn2)CN(C(=O)OCc2ccccc2)C3)n1 [Example 179, benzyl 6-((6-(4-isopropyl-4H-1,2,4-triazol-3-yl)pyridin-2-yl)carbamoyl)-1,3-dihydro-2H-pyrrolo[3,4-c]pyridine-2-carboxylate]
42 | < 6.00 | CC(C)n1nnnc1-c1cccc(NC(=O)c2cc3c(cn2)CN(C(=O)OCc2ccccc2)C3)n1 [Example 180]
43 | 8.00 to 9.00 | C[C@H](CO)n1nnnc1-c1cccc(NC(=O)c2cc3c(cn2)CCN(C)C3)n1 [Example 181]
44 | 8.00 to 9.00 | C[C@H](CO)n1nnnc1-c1cccc(NC(=O)c2cc3c(cn2)CCN(C(=O)NCCC(F)(F)F)C3)n1 [Example 183]
45 | < 6.00 | CC(C)n1cnnc1-c1cccc(NC(=O)c2ccc3c(c2)CN(C(=O)OC(C)(C)C)CC3)n1 [Example 183a]
46 | < 6.00 | C[C@H](CO)n1nnnc1-c1cccc(NC(=O)c2cc3c(cn2)CCN(C(=O)N(C)C2CCCC2)C3)n1 [Example 184, (R)—N2-cyclopentyl-N7-(6-(1-(1-hydroxypropan-2-yl)-1H-tetrazol-5-yl)pyridin-2-yl)-N2-methyl-3,4-dihydro-2,6-naphthyridine-2,7(1H)-dicarboxamide]
47 | 8.00 to 9.00 | C[C@H](CO)n1nnnc1-c1cccc(NC(=O)c2cc3c(cn2)CCN(C(=O)N2CCC2)C3)n1 [Example 185, (R)-6-(azetidine-1-carbonyl)-N-(6-(1-(1-hydroxypropan-2-yl)-1H-tetrazol-5-yl)pyridin-2-yl)-5,6,7,8-tetrahydro-2,6-naphthyridine-3-carboxamide]
48 | 7.00 to 8.00 | C[C@H](CO)n1nnnc1-c1cccc(NC(=O)c2cc3c(cn2)CCN(C(=O)NC2COC2)C3)n1 [Example 186]
49 | > 9.00 | CCn1cc(CNC(=O)N2CCc3cnc(C(=O)Nc4cccc(-c5nnnn5[C@H](C)CO)n4)cc3C2)cn1 [Example 187]

Row | Structure (SMILES) | pIC50
50 | CC(=O)OC[C@@H](C)n1nnnc1-c1cccc(NC(=O)c2cc3c(cn2)CCN(C(=O)OC(C)(C)C)C3)n1 [Example 147, tert-butyl (R)-7-((6-(1-(1-acetoxypropan-2-yl)-1H-tetrazol-5-yl)pyridin-2-yl)carbamoyl)-3,4-dihydro-2,6-naphthyridine-2(1H)-carboxylate] | 6.00 to 7.00
51 | C[C@H](CO)n1nnnc1-c1cccc(NC(=O)c2cc3c(cn2)CCN(C(=O)N2[C@@H]4CCC[C@H]2CC4)C3)n1 [Example 182, 6-((1R,5 S)-8-azabicyclo[3.2.1]octane-8-carbonyl)-N-(6-(1-((R)-1-hydroxypropan-2-yl)-1H-tetrazol-5-yl)pyridin-2-yl)-5,6,7,8-tetrahydro-2,6-naphthyridine-3-carboxamide] | 8.00 to 9.00
